Assay [1] concerns the target T1, rhLOXL2 (Homo sapiens (Human), UniProt Q9Y4K0). Nature of the assay: antibody/bioprobe ELISA assay detecting rhLOXL2. The assay is classed as binding. The settings on record: AF2639 capture, Compound 1-1 detection, FIG. 3A. As to the method:
Antibody A (AF2639) was conjugated to beads, bound to high protein binding plates (microlon 600, high binding, flat bottom, Greiner 655061 using coating buffer containing 71.5 mM NaHCO3 and 28.5 mM Na2CO3) overnight at 4° C. After washing with a mild detergent (0.05% Tween 20) to remove excess and unbound antibody, the beads or plates were then incubated with blocking solution (1-5% BSA/TBS) to block any free binding spots, for 1 hour at room temperature. The blocking solution was then removed and rhLOXL2 was added and incubated for 3 hours at 4° C. After washing (with a mild detergent) to remove excess/unbound protein, bioprobe Compound 1-1 (which is conjugated with biotin) was incubated for 2 hours at 37° C. at a concentration between IC50 to IC100 of the rhLOXL2 (as measured in a standard biochemical assay eg Amplex Red/Resorufin). After a washing step (with a mild detergent) streptavidin conjugated to horseradish peroxidase or an appropriate label was added and incubation was continued for 1 hour at room temperature. After an additional washing step (with mild TBS/tween detergent), a detection substrate (resorufin or TMB) was added followed by the fluorescence read at Excitation: 565 nm/Emmission: 590 nm or maximum absorbance at 450 nm. A suitable capture antibody will allow for bioprobe binding whilst providing a large signal.
FIG. 3 depicts the absorbance values (optical density 450 nm) from the antibody/bioprobe assay, using one antibody and Compound 1-1 (FIG. 3A) AF2639 was used as the capture antibody, rhLOXL2 was used as the antigen and 80 nM of Compound 1-1 was used as the detection. FIG. 3B) Fitzgerald 70R-12876 was used as the capture antibody, rhLOXL2 is used as the antigen and 80 nM of Compound 1-1 is used as the detection.
When the bioprobe contains two biotin moieties, the signal is more robust than a single biotin counterpart. […] AF2639 was used as the capture, rhLOXL2 was used as the antigen and 78 nM of Compound 1-12 was used for detection.
(ELISA stands for enzyme-linked immunosorbent assay.)

The target in a further assay is LOX in human serum (Homo sapiens (Human), UniProt P28300). Nature of the assay: LOX Bioprobe Activity Assay (Simoa). The assay is classed as biochemical. As for the experimental part:
The LOX Bioprobe Assay used a Simoa HD-1 analyzer and Simoa technology to run a 2-step digital immunoassay, to measure the activity of unbound LOX in human serum.
This assay used the same anti-LOX capture antibody as for the Protein Concentration Assay. The bioprobe (Compound 1-12) was diluted down to 130 μM in deionized H2O prior to being diluted in Detector Buffer. Before being loaded onto the analyzer, samples were diluted at least 6 fold in Assay Buffer (1% BSA, 0.25% Rabbit Serum, 2% PEG (20k MW), 0.55% Tween-20, 1×PBS; used to dilute samples, controls, and detector reagent). To determine the background signal, diluted samples were pre-incubated for 30 min with LOX inhibitor beta-aminoproprionitrile (BAPN).
In the LOX Bioprobe Activity 2-step immunoassay, target-antibody-coated paramagnetic beads (500k per mL) were combined with diluted sample and biotinylated detector-bioprobe ([…]) in the same incubation cuvette for 54 minutes. […]
A single-labeled target molecule results in sufficient fluorescent signal in 30 seconds to be detected and counted by the Simoa optical system. […] At higher target concentration, when most of the bead-containing wells have one or more labeled target molecules, the total fluorescence signal is proportional to the amount of target present in the sample. […]

For another assay, the target named is Bovine LOX (Bos taurus (Bovine), UniProt P33072). As to the kind of experiment: LOX inhibition, peroxidase-coupled Amplex Red assay. The settings on record: 30 min preincubation at 37° C. The assay is classed as biochemical. The source says:
(§1) Method to Determine the Ability of Compounds of the Invention to Inhibit LOX and LOXL1-4 from Different Sources […] S., Trackman P. C. and Kagan H. M., Reaction of aortic lysyl oxidase with beta-aminoproprionitrile. J Biol Chem 1983; 258: 4331-4338). There are five LOX family members; these are LOX, LOXL1, LOXL2, LOXL3 and LOXL4. LOX and LOXL family members can be acquired as recombinant active proteins from commercial sources, or extracted from animal tissues like bovine aorta, tendons, pig skin; or prepared from cell cultures. The inhibitory effects of the compounds of the present invention were tested against the given LOX-LOXL preparation using a high-throughput coupled colorimetric method (Holt A. and Palcic M., A peroxidase-coupled continuous absorbance plate-reader assay for flavin monoamine oxidases, copper-containing amine oxidases and related enzymes. Nat. Protoc. 2006; 1: 2498-2505). The assay was developed using either 384 or 96 well format. […] Test compounds were dissolved in DMSO and tested in a Concentration Response Curve (CRC) with 11 data points, typically in the micromolar or nanomolar range after incubation with the enzyme for 30 min at 37° C. 25 μL of a reaction mixture containing twice the KM concentration of putrescine (Sigma Aldrich, e.g. 20 mM for LOX, or 10 mM for LOXL2 and LOXL3), 120 μM Amplex Red (Sigma Aldrich) and 1.5 U/mL horseradish peroxidase (Sigma Aldrich) prepared in 1.2 M urea, 50 mM sodium borate buffer (pH 8.2) were then added to the corresponding wells. The above volumes were doubled in the case of 96 well plates. The fluorescence (RFU) was read every 2.5 m n for 30 m u […], excitation 565 nm and emission 590 nm (Optima; BMG labtech). The slope of the kinetics for each well was calculated using MARS data analysis software (BMG labtech) and this value was used to deduce the IC50 value (Dotmatics).

The target in assay [2] is T1, rhLOXL2. As to the kind of experiment: LOXL2 inhibition, peroxidase-coupled Amplex Red assay. The assay is classed as biochemical. The conditions noted are these: 30 min preincubation at 37° C.
From the text: as §1

A further assay deals with Human LOXL3 (Homo sapiens (Human), UniProt P58215). As to the kind of experiment: LOXL3 inhibition, peroxidase-coupled Amplex Red assay. The assay is classed as biochemical. The settings on record: 30 min preincubation at 37° C. The source says:
Method to Determine the Ability of Compounds of the Invention to Inhibit LOX and LOXL1-4 from Different Sources […] S., Trackman P. C. and Kagan H. M., Reaction of aortic lysyl oxidase with beta-aminoproprionitrile. J Biol Chem 1983; 258: 4331-4338). There are five LOX family members; these are LOX, LOXL1, LOXL2, LOXL3 and LOXL4. LOX and LOXL family members can be acquired as recombinant active proteins from commercial sources, or extracted from animal tissues like bovine aorta, tendons, pig skin; or prepared from cell cultures. The inhibitory effects of the compounds of the present invention were tested against the given LOX-LOXL preparation using a high-throughput coupled colorimetric method (Holt A. and Palcic M., A peroxidase-coupled continuous absorbance plate-reader assay for flavin monoamine oxidases, copper-containing amine oxidases and related enzymes. Nat. Protoc. 2006; 1: 2498-2505). The assay was developed using either 384 or 96 well format. […] The fluorescence (RFU) was read every 2.5 m n for 30 m u at a range of temperatures from 37° C. to 45° C., excitation 565 nm and emission 590 nm (Optima; BMG labtech). The slope of the kinetics for each well was calculated using MARS data analysis software (BMG labtech) and this value was used to deduce the IC50 value (Dotmatics).

Structures are written as SMILES. pIC50: −log10 of the molar value. Several values for one entry are separate records, joined by “and”; a condition that tells them apart may be missing. Identical values can stand only once. Counter-ions that a name gives are not always drawn. Some results are limits rather than exact numbers.

Sequence of LOX in human serum (P28300 169-417): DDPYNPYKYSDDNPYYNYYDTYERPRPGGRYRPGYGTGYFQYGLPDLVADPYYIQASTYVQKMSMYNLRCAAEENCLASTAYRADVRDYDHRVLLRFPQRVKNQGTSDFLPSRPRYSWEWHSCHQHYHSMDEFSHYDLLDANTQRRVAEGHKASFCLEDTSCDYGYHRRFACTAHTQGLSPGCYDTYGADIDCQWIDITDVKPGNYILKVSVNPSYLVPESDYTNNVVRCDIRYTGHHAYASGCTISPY
Sequence of Bovine LOX (P33072 170-418): as the sequence (P28300 169-417) above, with S10T, G29S, A49P, S64A, T80S, A84X, N142S, G188N, T224S, D231E counted along it
T1 sequence (Q9Y4K0 26-774): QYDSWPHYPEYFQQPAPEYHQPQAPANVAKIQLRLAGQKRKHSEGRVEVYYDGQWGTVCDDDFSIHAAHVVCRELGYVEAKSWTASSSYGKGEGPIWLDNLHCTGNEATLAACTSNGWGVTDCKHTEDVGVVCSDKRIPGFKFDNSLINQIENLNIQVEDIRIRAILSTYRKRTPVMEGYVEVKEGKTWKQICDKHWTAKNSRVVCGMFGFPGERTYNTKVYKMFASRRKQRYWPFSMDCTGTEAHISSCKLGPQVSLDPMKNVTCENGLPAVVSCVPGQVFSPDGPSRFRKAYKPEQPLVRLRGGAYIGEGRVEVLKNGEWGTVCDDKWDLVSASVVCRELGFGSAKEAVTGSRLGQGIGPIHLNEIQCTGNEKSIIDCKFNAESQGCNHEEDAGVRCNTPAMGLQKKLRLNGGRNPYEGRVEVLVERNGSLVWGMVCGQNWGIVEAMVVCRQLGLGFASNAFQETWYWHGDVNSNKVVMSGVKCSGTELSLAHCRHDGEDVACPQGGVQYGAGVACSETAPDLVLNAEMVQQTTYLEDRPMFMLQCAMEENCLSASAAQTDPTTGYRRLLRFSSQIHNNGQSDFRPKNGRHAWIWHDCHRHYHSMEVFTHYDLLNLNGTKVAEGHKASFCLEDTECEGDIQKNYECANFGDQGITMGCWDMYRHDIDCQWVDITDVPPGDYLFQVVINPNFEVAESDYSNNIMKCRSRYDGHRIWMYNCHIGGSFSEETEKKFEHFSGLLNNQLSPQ
Sequence of Human LOXL3 (P58215 26-753): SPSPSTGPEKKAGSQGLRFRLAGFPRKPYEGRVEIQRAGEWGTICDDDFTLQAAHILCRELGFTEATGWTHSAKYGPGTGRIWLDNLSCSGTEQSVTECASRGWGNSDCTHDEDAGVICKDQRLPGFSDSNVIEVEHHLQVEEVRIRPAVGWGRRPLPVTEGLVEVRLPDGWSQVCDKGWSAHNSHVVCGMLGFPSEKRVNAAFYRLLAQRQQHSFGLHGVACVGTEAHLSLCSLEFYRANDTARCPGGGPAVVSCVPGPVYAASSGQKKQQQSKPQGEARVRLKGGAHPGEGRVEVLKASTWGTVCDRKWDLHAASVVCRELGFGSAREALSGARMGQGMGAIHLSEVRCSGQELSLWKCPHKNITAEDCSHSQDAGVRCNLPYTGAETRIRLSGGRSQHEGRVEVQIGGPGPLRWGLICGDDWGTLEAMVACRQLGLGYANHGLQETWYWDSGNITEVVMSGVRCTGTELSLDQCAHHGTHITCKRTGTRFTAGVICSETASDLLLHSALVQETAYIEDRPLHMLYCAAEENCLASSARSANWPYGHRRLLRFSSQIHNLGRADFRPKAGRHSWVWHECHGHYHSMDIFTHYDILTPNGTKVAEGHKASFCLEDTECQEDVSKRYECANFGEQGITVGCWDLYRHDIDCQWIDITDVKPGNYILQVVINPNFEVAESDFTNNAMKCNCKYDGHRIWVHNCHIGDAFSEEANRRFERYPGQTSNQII

Regarding `N#CCCN` [BAPN, β-aminopropionitrile], the “effect of inhibitor on bioprobe rhLOXL2 signal” value at rhLOXL2 [1] is “the signal is ablated”. The Average signal on LOX in human serum (human serum + CM (×100 diluted) + BAPN, bioprobe Compound 1-12) was 0.0093 and 0.0077. Also, the “effect of inhibitor on LOX bioprobe signal” value at LOX in human serum (human serum spiked with human fibroblast conditioned media) is “significantly reduces the signal”.

As a reminder, the pIC50 is the negative decadic logarithm of the IC50, by convention in mol/L. Higher therefore signals a low IC50. For `NC/C=C(\F)CS(=O)(=O)c1ccccc1C(=O)NCCCCCNC(=O)CCCC[C@@H]1SC[C@@H]2NC(=O)N[C@@H]21` [Compound 1-8, 2-(((Z)-4-amino-2-fluorobut-2-en-1-yl)sulfonyl)-N-(5-(5-((3aS,4S,6aR)-2-oxohexahydro-1H-thieno[3,4-d]imidazol-4-yl)pentanamido)pentyl)benzamide hydrochloride], the pIC50 against Bovine LOX and at rhLOXL2 [2] was < 6.52 each time.

Regarding `NC/C=C(\F)CS(=O)(=O)c1cccc(C(=O)NCCCCCNC(=O)CCCC[C@@H]2SC[C@@H]3NC(=O)N[C@@H]32)c1` [Compound 1-9, 3-(((Z)-4-amino-2-fluorobut-2-en-1-yl)sulfonyl)-N-(5-(5-((3aS,4S,6aR)-2-oxohexahydro-1H-thieno[3,4-d]imidazol-4-yl)pentanamido)pentyl)benzamide hydrochloride], the negative logarithm of the IC50 (pIC50) at Bovine LOX and against rhLOXL2 [2] was < 6.52 each time.

With `NC/C=C(\F)CS(=O)(=O)c1cccc(C(=O)Nc2cc(C(=O)N3CCN(C(=O)CCCC[C@@H]4SC[C@@H]5NC(=O)N[C@@H]54)CC3)cc(C(=O)N3CCN(C(=O)CCCC[C@@H]4SC[C@@H]5NC(=O)N[C@@H]54)CC3)c2)c1` [Compound 1-10, 3-(((Z)-4-amino-2-fluorobut-2-en-1-yl)sulfonyl)-N-(3,5-bis(4-(5-((3aS,4S,6aR)-2-oxohexahydro-1H-thieno[3,4-d]imidazol-4-yl)pentanoyl)piperazine-1-carbonyl)phenyl)benzamide hydrochloride], the pIC50 at Bovine LOX and at rhLOXL2 [2] was < 6.52 throughout.

`NC/C=C(\F)CS(=O)(=O)c1cccc(OCCCc2cn(CCCCC[C@@H]3SC[C@@H]4NC(=O)N[C@@H]43)nn2)c1` [Compound 1-11, (3aS,4S,6aR)-4-(5-(4-(3-(3-(((Z)-4-amino-2-fluorobut-2-en-1-yl)sulfonyl)phenoxy)propyl)-1H-1,2,3-triazol-1-yl)pentyl)tetrahydro-1H-thieno[3,4-d]imidazol-2(3H)-one hydrochloride]: the pIC50 at Bovine LOX was < 6.52; against rhLOXL2 [2], > 6.52.

On to `NC/C=C(\F)CS(=O)(=O)c1cccc(N(CCCc2cn(CCCCC[C@@H]3SC[C@@H]4NC(=O)N[C@@H]43)nn2)CCCc2cn(CCCCC[C@@H]3SC[C@@H]4NC(=O)N[C@@H]43)nn2)c1` [Compound 1-13, (3aS,3a'S,4S,4'S,6aR,6a′R)-4,4′-(((((3-(((Z)-4-amino-2-fluorobut-2-en-1-yl)sulfonyl)phenyl)azanediyl)bis(propane-3,1-diyl))bis(1H-1,2,3-triazole-4,1-diyl))bis(pentane-5,1-diyl))bis(tetrahydro-1H-thieno[3,4-d]imidazol-2(3H)-one) hydrochloride], for which the pIC50 against Bovine LOX and against rhLOXL2 [2] was < 6.52 throughout.

In the case of `NC/C=C(\F)CS(=O)(=O)c1cccc(NCCCc2cn(CCCCC[C@@H]3SC[C@@H]4NC(=O)N[C@@H]43)nn2)c1` [Compound 1-14, hydrochloride], the pIC50 against Bovine LOX and at rhLOXL2 [2] was < 6.52 each time.

Regarding `CN(C)S(=O)(=O)c1ccc(C(OCc2ccc(-n3cc(CNC(=O)CCCC[C@@H]4SC[C@@H]5NC(=O)N[C@@H]54)nn3)cc2)c2cn(C/C(F)=C/CN)nn2)cc1` (stereo partly drawn) [Compound 1-15, N-((1-(4-(((1-((Z)-4-amino-2-fluorobut-2-en-1-yl)-1H-1,2,3-triazol-4-yl)(4-(N,N-dimethylsulfamoyl)phenyl)methoxy)methyl)phenyl)-1H-1,2,3-triazol-4-yl)methyl)-5-((3aS,4S,6aR)-2-oxohexahydro-1H-thieno[3,4-d]imidazol-4-yl)pentanamide hydrochloride], the negative-log IC50 (pIC50) on Bovine LOX, against rhLOXL2 [2] and against Human LOXL3 was > 6.52 throughout.

Consider `CN(C)S(=O)(=O)c1ccc(C(OCc2ccc(-n3cc(CNC(=O)CCOCCOCCOCCOCCNC(=O)CCCC[C@@H]4SC[C@@H]5NC(=O)N[C@@H]54)nn3)cc2)c2cn(C/C(F)=C/CN)nn2)cc1` (stereo partly drawn) [Compound 1-16, N-((1-(4-(((1-((Z)-4-amino-2-fluorobut-2-en-1-yl)-1H-1,2,3-triazol-4-yl)(4-(N,N-dimethylsulfamoyl)phenyl)methoxy)methyl)phenyl)-1H-1,2,3-triazol-4-yl)methyl)-1-(5-((3aS,4S,6aR)-2-oxohexahydro-1H-thieno[3,4-d]imidazol-4-yl)pentanamido)-3,6,9,12-tetraoxapentadecan-15-amide hydrochloride], for which the negative-log IC50 (pIC50) is < 6.52 on Bovine LOX and > 6.52 at rhLOXL2 [2].

The values above are taken from patent publication US20230349907A1, “BIOPROBES FOR LYSYL OXIDASES AND USES THEREOF” (Pharmaxis Ltd., priority 2020, published 2023).
